Where two headings read alike, the source gives them in different places.

Our source for the AUC, Cmax and pKa values is patent publication US20200315984A1 (priority 2013, published 2020).

The nature of data set [1]: Extrapolated absorption data for dual-film dosage. It counts as in vivo. The note with it: human, plasma, dual-layered film; for AUC: local pH 3.5 and 5.5, read-out: Naloxone AUC; for Cmax: local pH 3.5 and 5.5, read-out: Naloxone Cmax. As for the experimental part:
A dual-film dosage is prepared, with the first film layer having a local pH of about 3.5 and containing an antagonist therein, and the second film layer having a local pH of about 5.5 and containing an agonist therein. In this dual-film dosage, the first film layer (having the antagonist) is a fast-dissolving film, while the second film layer (having the agonist) is a moderate dissolving film.

The conditions of data set [2]: cited from earlier work.
Setting [3] is: other: sublingual or buccal film.
Setting [4] is: other: sublingual/buccal film dissolved in the oral cavity.

In the case of `C=CCN1CC[C@]23c4c5ccc(O)c4O[C@H]2C(=O)CC[C@@]3(O)[C@H]1C5` [naloxone], in data set [1] (setting [3]), the AUC is 0.0905 to 0.724 ng·h/mL and the Cmax is 0.0325 to 0.26 ng/mL. Besides, in data set [1] (setting [4]), the AUC is 0.0906 to 0.724 ng·h/mL and the Cmax was 0.0325 to 0.26 ng/mL. The pKa entry in data set [2] is on record as “about 7.94”.

Usually AUC stands for the area under the concentration-time curve, a measure of exposure. Usually Cmax stands for the maximum level reached in the sampled fluid or tissue.
